Measurements published in PMC6353875, “The EZH2 SANT1 domain is a histone reader providing sensitivity to the modification state of the H4 tail” (Scientific Reports, 2019).
Entries after “also recorded” stand apart in the source; their conditions may differ.

Experiments:
[1] = molecular target: T1, EZH2 SRM-SANT1 (residues 141–251) (Homo sapiens, UniProt Q15910); experiment: NMR titration (1H-15N HSQC) of SRM-SANT1 with histone peptides; format: binding; details: for chemical shift perturbations (CSPs) upon peptide addition: 1H-15N HSQC overlay, 25 °C, 0.05–0.10 mM 15N-SRM-SANT1, increasing concentrations of peptide; for effect of H4K16 acetylation on interaction/binding (NMR): 1H-15N HSQC titration of SRM-SANT1 with H4K16ac(1–21)
T1 construct: All additional studies were performed with the SRM-SANT1 construct containing residues 141–251; GST (N, cleaved yes); made in house; host or cells: E. coli Rosetta2 (DE3) pLysS
T1 sequence (Q15910 141-251): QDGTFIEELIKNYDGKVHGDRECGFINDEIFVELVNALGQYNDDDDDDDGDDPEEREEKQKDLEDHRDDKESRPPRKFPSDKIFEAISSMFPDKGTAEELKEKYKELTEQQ
Excerpt: (§1) The complete human EZH2 cDNA was obtained from OpenBiosystems (GE Healthcare, Accession #:BC010858). EZH2 SANT1 (residues 159–251) and SRM-SANT1 (residues 141–251) were subcloned into a pDEST15 (N-terminal GST-tag) expression vector using the Gateway Recombination cloning method (Invitrogen, ThermoScientific) with a PreScission Protease cleavage site engineered between the GST-tag and the N-terminus of EZH2 SRM-SANT1. Mutants were generated in the 141–251 construct using site-directed mutagenesis (Q5 mutagenesis kit, New England Biolabs).
(§2) For purification, cell pellets were thawed on ice and lysed by emulsiflex in a lysis buffer containing 150 mM NaCl, 50 mM Tris (pH 6.5), 3 mM DTT, 0.1% Triton X-100 and DNaseI. Lysate was cleared at 18,000 g for 1 hour at 4 °C. The soluble supernatant was incubated with glutathione agarose resin (ThermoFisher Scientific) and washed extensively with a buffer containing 900 mM NaCl, 50 mM Tris (pH 6.5) and 3 mM DTT. The GST-tag was cleaved by incubation with PreScission Protease overnight and SRM-SANT1 was further purified by FPLC using […] over a Source15S column and size exclusion chromatography over a superdex 75 column. The final buffer contained 150 mM NaCl, 50 mM Tris (pH 6.5), 3 mM DTT, with or without 5 mM EDTA.
Biotinylated histone H4K16ac (1–21, AS-64847-1) was obtained from Anaspec. All histone peptides were dissolved in H2O at a concentration of 20 mM, and the pH adjusted to ~7.0. DNA oligos were obtained from IDT. The DNA was annealed by mixing equimolar amounts of single stranded oligos. DNA was heated to 95 °C for 10 minutes before allowing to cool overnight. The annealed DNA was further purified by size exclusion chromatography over a superdex 75 column in a buffer containing 150 mM NaCl, 50 mM Tris (pH 6.5), 3 mM DTT, with 5 mM EDTA. Titrations were performed by collecting ^15N-HSQC spectra on 0.05–0.10 mM ^15N-EZH2 SRM-SANT1 while titrating in increasing concentrations of the respective ligands. Titration experiments were performed at 25 °C on a Bruker Avance II 800 MHz NMR spectrometer equipped with a 5 mm triple resonance cryoprobe. Data was processed and analyzed using NMRPipe and CcpNmr[53],[54].
Kd values were determined for all individual residues with significant Δδ in each individual titration.

[2] = system: SRM-SANT1; experiment: Biotinylated histone peptide pulldown; format: binding, human; details: for effect of modification on SRM-SANT1 binding (pulldown): 1 μg SRM-SANT1 with 1 μg Biotin-tagged H4 peptide, overnight 4 °C, 150 mM NaCl, 50 mM Tris (pH 6.5), 3 mM DTT, streptavidin resin, coomassie, ImageJ, triplicate, vs corresponding unmodified peptide, p-value < 0.05; for effect of H4 modification on binding of SANT1 to H4 (abstract summary): summary statement in abstract
Excerpt: as §1, §2
Biotinylated unmodified histone H4 (1–23, SKU:12-0029), unmodified H4 (11–27, SKU:12-0035), H4K16ac (1–23, SKU:12-0033), H4K20ac (1–24, SKU:12-0052) and H4K20me3 (11–27, SKU:12-0038) peptides were obtained from EpiCypher. 1 μg of purified SRM-SANT1 was incubated with 1 μg of Biotin-tagged H4 peptides unmodified or containing single modifications. Reactions were incubated overnight rocking end over end at 4 °C in a binding buffer containing 150 mM NaCl, 50 mM Tris (pH 6.5), 3 mM DTT. Streptavidin sepharose resin (25 μL of 50% slurry, GE Life Sciences) was added to each reaction and rocked end over end at 4 °C for two hours. The reactions were then spun at 2500 × g, supernatant decanted and beads washed with 500 μL of the binding buffer four times. After the final wash, beads were resuspended in 5x SDS loading dye, ran on a 4–20% gradient gel and visualized using coomassie staining. Gels were imaged using an ImageQuant LAS 4000 imager. Quantification of triplicate pull down experiments was performed using ImageJ[59].

Substance	chemical shift perturbations (CSPs) upon peptide addition [1]	effect of modification on SRM-SANT1 binding (pulldown) [2]	effect of H4 modification on binding of SANT1 to H4 (abstract summary) [2]	also measured
H4(11–21): unmodified histone H4 (11–21), custom synthesized by GenScript	confirms binding to the basic patch of H4; also recorded: very similar CSPs as was observed for H4(1–21)	–	–	fold weaker binding (Kd) than H4 tail (1–21) ([1]; ratio of Kd to that of H4 (1–21)): ~ 2 x
H4K16ac: H4K16ac (1–23, SKU:12-0033), biotinylated peptide from EpiCypher; pulldown	–	significant decreases in SRM-SANT1 binding	abrogate binding of SANT1 to H4	–
H4K20me3: H4K20me3 (11–27, SKU:12-0038), biotinylated peptide from EpiCypher	–	significant decreases in SRM-SANT1 binding	abrogate binding of SANT1 to H4	–
H4K20ac: H4K20ac (1–24, SKU:12-0052), biotinylated peptide from EpiCypher	–	decreased binding, though not statistically significantly	abrogate binding of SANT1 to H4	–
H4(1–10): unmodified histone H4 (1–10), custom synthesized by GenScript (SGRGKGGKGL)	very minor CSPs throughout SANT1, indicative of non-specific interactions	–	–	–
H4K16ac(1–21): Biotinylated histone H4K16ac (1–21, AS-64847-1), obtained from Anaspec; NMR titration	–	–	–	effect of H4K16 acetylation on interaction/binding (NMR) [1]: abrogates binding; effect of H4K16 acetylation on interaction/binding (NMR) ([1]; listed as H4K16ac peptide): substantially abrogates interaction with the H4 tail
